Measurements taken from the OPERA property sets (Mansouri et al. 2018).
Values after ≈ are worked out from the molar mass of the structure shown.

conditions: not given

Going from `CCOC(C(=O)OCc1ccccc1)C(C)C` (stereo not given) to `CC(CC(=O)c1ccccc1)C(=O)O` (stereo not given), the logP falls from 3.29 to 1.62.

First: COP(=S)(OC)Oc1ccc(SC)cc1
Second: Cc1ccccc1CCN
The logP of the first is higher: 3.74 for the first, 1.6 for the second.

First: CC(=O)n1ncc2c(O)ncnc21
Second: CCCC(=O)Oc1c(Br)cc(C#N)cc1Br
The logP of the first is lower: -0.35 for the first, 3.94 for the second.

Compared with `NCCc1nccs1`, `N=C(N)NN=Cc1ccc(Cl)cc1` is higher in logP: 0.16 for the first, 0.96 for the second.

First: CCCCCOC(C)=O
Second: COCC(C)OC(C)=O (stereo not given)
The logP of the first is higher: 2.3 for the first, 0.56 for the second.

Compared with `CCOP(=O)(CN(CCO)CCO)OCC`, `CCC(C)CO` (stereo not given) is higher in logP: -0.72 for the first, 1.29 for the second.

Going from `CN(C)C(=S)N(C)C` to `CNc1nc(C)nc(C(Cl)(Cl)Cl)n1`, the logP rises from 0.49 to 2.43.

First: CCCNc1nc(C)nc(C(Cl)(Cl)Cl)n1
Second: CCNc1nc(N)nc(Cl)n1
The logP of the first is higher: 3.29 for the first, 1.15 for the second.

In the case of `N[C@@H](CSSC[C@H](N)C(=O)O)C(=O)O`, the logP is reported as -5.08.

Compared with `CNC(=O)Oc1cccc2c1OC(C)(C)C2`, `CCNc1nc(N)nc(Cl)n1` is 2.7-fold higher in solubility: 1.45 mM (≈ 320 µg/mL) for the first, 3.86 mM (≈ 670 µg/mL) for the second.

With `O=P(OC(Cl)CCCl)(OC(Cl)CCCl)OC(Cl)CCCl` (stereo not given) the solubility was 0.232 mM (≈ 100 µg/mL).

same assay, conditions: 20 °C

First: CC1=C(c2ccccc2)C(=O)N(C(C)(C)c2cc(Cl)cc(Cl)c2)CO1
Second: CCCCOCC1CO1 (stereo not given)
The solubility of the first is far lower: 0.000478 mM (≈ 0.18 µg/mL) for the first, 154 mM (≈ 20000 µg/mL) for the second.

same assay, conditions: 22 °C

`CN(C)C(=O)Nc1cccc(C(F)(F)F)c1` showed a solubility of 0.366 mM (≈ 85 µg/mL).

same assay, conditions: 23 °C

For `NC(=O)c1c(Cl)cccc1Cl`, the solubility was 14.4 mM (≈ 2730 µg/mL).

same assay, conditions: 23.0 °C

Compared with `CC(=O)CCC=C(C)C`, `CC(=O)CC(C)(C)O` is lower in log10 OH rate constant (cm³/molecule/s): -9.8 for the first, -11.4 for the second.

First: CC(=O)C1CC=C(C)CC1 (stereo not given)
Second: CC1=CCC(=O)O1
The log10 OH rate constant (cm³/molecule/s) of the first is higher: -9.89 for the first, -10.2 for the second.

Work on `O=C1CC=CO1` yielded a log10 OH rate constant (cm³/molecule/s) of -10.4.

same assay, conditions: 24 °C

With `N#CSCSc1nc2ccccc2s1` the solubility was 0.524 mM (≈ 125 µg/mL).

same assay, conditions: 24.0 °C

First: Clc1cccc(-c2cccc(Cl)c2)c1
Second: c1ccc2cnccc2c1
The log10 OH rate constant (cm³/molecule/s) of the first is lower: -11.4 for the first, -11.1 for the second.

same assay, conditions: 25 °C

Compared with `CCCCCCCCOC(=O)COc1ccc(Cl)cc1Cl`, `CCCCCCCCCCCCN` is 4400-fold higher in solubility: 9.51e-05 mM (≈ 0.0317 µg/mL) for the first, 0.421 mM (≈ 78 µg/mL) for the second.

First: Oc1ccc(Cl)c(Cl)c1
Second: Cc1cc(Cl)ccc1O
The solubility of the first is 2-fold higher: 56.8 mM (≈ 9260 µg/mL) for the first, 28.1 mM (≈ 4000 µg/mL) for the second.

First: C=C(Cl)CCl
Second: ClC(Cl)=C(Cl)C(Cl)=C(Cl)Cl
The solubility of the first is 1600-fold higher: 19.4 mM (≈ 2150 µg/mL) for the first, 0.0123 mM (≈ 3.2 µg/mL) for the second.

Compared with `COC(CN(C)C(=O)Nc1nnc(C(C)(C)C)s1)OC`, `CNC(=O)O/N=C/C(C)(C)S(C)=O` (stereo not given) is 10-fold higher in solubility: 13.6 mM (≈ 4100 µg/mL) for the first, 136 mM (≈ 28000 µg/mL) for the second.

First: CC(C)CCO[N+](=O)[O-]
Second: COCC(C)OC(C)=O (stereo not given)
The solubility of the first is 450-fold lower: 3.3 mM (≈ 440 µg/mL) for the first, 1500 mM (≈ 198000 µg/mL) for the second.

Going from `CC1CO1` (stereo not given) to `CC1(C)Cc2cccc([N+](=O)[O-])c2O1`, the solubility falls from 10200 mM (≈ 590000 µg/mL) to 0.621 mM (≈ 120 µg/mL) (16000-fold).

Going from `Cc1ccccc1N` to `Cc1cccc(C)c1N`, the solubility falls from 155 mM (≈ 16600 µg/mL) to 68 mM (≈ 8240 µg/mL) (2.3-fold).

Compared with `Cc1ccc(O)c(C)c1`, `COc1c(Cl)ccc(Cl)c1C(=O)O` is 2.3-fold lower in solubility: 64.4 mM (≈ 7870 µg/mL) for the first, 27.7 mM (≈ 6120 µg/mL) for the second.

Compared with `CC(C)c1ccccc1`, `ClCc1ccccc1` is 8.1-fold higher in solubility: 0.51 mM (≈ 61.3 µg/mL) for the first, 4.15 mM (≈ 525 µg/mL) for the second.

Going from `CC(Cl)C(Cl)Cl` (stereo not given) to `O=c1n(Cl)c(=O)n(Cl)c(=O)n1Cl`, the solubility rises from 12.9 mM (≈ 1900 µg/mL) to 51.6 mM (≈ 12000 µg/mL) (4-fold).

Going from `ClC1=C(Cl)C2(Cl)C3C4OC4C(Cl)C3C1(Cl)C2(Cl)Cl` (stereo not given) to `Clc1cc2c(oc3c(Cl)c(Cl)c(Cl)c(Cl)c32)c(Cl)c1Cl`, the solubility falls from 0.000514 mM (≈ 0.2 µg/mL) to 3.3e-09 mM (≈ 1.35e-06 µg/mL).

Going from `Clc1ccccc1-c1ccccc1` to `c1ccc2nc3ccccc3cc2c1`, the solubility rises from 0.0256 mM (≈ 4.83 µg/mL) to 0.214 mM (≈ 38.4 µg/mL) (8.4-fold).

`Nc1ccn([C@H]2CC[C@@H](CO)O2)c(=O)n1` showed a solubility of 362 mM (≈ 76400 µg/mL).

same assay, conditions: 25.0 °C

`CCOC(F)(F)C(F)F` and `COC(F)(F)C(F)F` are within 0.2 log units of each other in log10 OH rate constant (cm³/molecule/s): -12.6 for the first, -12.7 for the second.

Going from `FC(F)OC(F)F` to `FC(F)C(F)F`, the log10 OH rate constant (cm³/molecule/s) rises from -14.5 to -14.2.

First: FC(F)=C(F)C(F)(F)F
Second: FC(F)(F)I
The log10 OH rate constant (cm³/molecule/s) of the first is higher: -11.7 for the first, -13.3 for the second.

Going from `COC(=O)CCC(=O)OC` to `COC(=O)OC`, the log10 OH rate constant (cm³/molecule/s) falls from -11.9 to -12.5.

Going from `FC(F)(F)CBr` to `FC(F)(F)C(Cl)Br` (stereo not given), the log10 OH rate constant (cm³/molecule/s) rises from -13.7 to -13.3.

First: COC(=O)C(C)O (stereo not given)
Second: CCNC(=O)OCC
The log10 OH rate constant (cm³/molecule/s) of the first is lower: -11.6 for the first, -10.8 for the second.

Compared with `COc1ccc([N+](=O)[O-])cc1`, `Clc1c(Cl)c(Cl)c2c(c1Cl)Oc1ccccc1O2` is lower in log10 OH rate constant (cm³/molecule/s): -11.6 for the first, -12.1 for the second.

First: CCCN(CCC)C(=O)SCC
Second: CC/C=C\CCOC(C)=O
The log10 OH rate constant (cm³/molecule/s) of the first is lower: -10.5 for the first, -10.1 for the second.

First: OCCOCCO
Second: FC(F)(F)CCC(F)(F)F
The log10 OH rate constant (cm³/molecule/s) of the first is higher: -10.5 for the first, -14.1 for the second.

Compared with `CI`, `CC12CCC(CC1)C(C)(C)O2` is higher in log10 OH rate constant (cm³/molecule/s): -13.1 for the first, -11 for the second.

Compared with `FC1(F)OC(F)(F)C1(F)F`, `O=C/C=C/C=C/C=O` is higher in log10 OH rate constant (cm³/molecule/s): less than -15.7 for the first, -10 for the second.

same assay, conditions: pH 7.4

With `COc1c(C)c2c(c(O)c1C/C=C(\C)CCC(=O)OCCN1CCOCC1)C(=O)OC2` the logD was 2.38.
